Measurements published in the supplement of paper PMC11061612.

Assays:
AZD7648 = compound: Cc1cc2ncnn2cc1Nc1ncc2c(n1)n(C1CCOCC1)c(=O)n2C [AZD7648]; details: max 10 µM
Outline: (§1)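 Cancer cell lines in 1536-well plates (7.5 μl DMEM/F12 or RPMI, 10% FBS) were held 24 hours at 37°C and 5% CO2 and then dosed for 72 hours at a final DMSO of typically 0.2%. Viability was taken from CellTiter-Glo 2.0 luminescence, scaled between blank-well and DMSO-well means. Curves were fitted as two-parameter logistic models with a non-linear mixed effects model, from which the single-agent IC50 was taken.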

Crizotinib = compound: C[C@@H](Oc1cc(-c2cnn(C3CCNCC3)c2)cnc1N)c1c(Cl)ccc(F)c1Cl [Crizotinib]; details: max 10 µM
Outline: as §1

Venetoclax = compound: CC1(C)CCC(CN2CCN(c3ccc(C(=O)NS(=O)(=O)c4ccc(NCC5CCOCC5)c([N+](=O)[O-])c4)c(Oc4cnc5[nH]ccc5c4)c3)CC2)=C(c2ccc(Cl)cc2)C1 [Venetoclax]; details: max 1 µM
Outline: as §1

Prexasertib = compound: COc1cccc(OCCCN)c1-c1cc(Nc2cnc(C#N)cn2)n[nH]1 [Prexasertib]; details: max 1 µM
Outline: as §1

AZD4320 = compound: CN(CC[C@H](CSC1=CC=CC=C1)NC2=C(C=C(C=C2)S(=O)(=O)NC(=O)C3=CC=C(C=C3)N4CCC(CC4)[C@H](C5=CC=CC=C5C6=CC=C(C=C6)Cl)O)S(=O)(=O)C(F)(F)F)CCO [AZD4320]; details: max 1 µM
Outline: as §1

Olaparib = compound: O=C(c1cc(Cc2n[nH]c(=O)c3ccccc23)ccc1F)N1CCN(C(=O)C2CC2)CC1 [Olaparib]; details: max 10 µM
Outline: as §1

AZD5991 = compound: Cc1c2c(nn1C)CSCc1cc(n(C)n1)CSc1cc(c3ccccc3c1)OCCCc1c(C(=O)O)n(C)c3c-2c(Cl)ccc13 [AZD5991]; details: max 1 µM
Outline: as §1

AZD1390 = compound: CC(C)n1c(=O)n(C)c2cnc3cc(F)c(-c4ccc(OCCCN5CCCCC5)nc4)cc3c21 [AZD1390]; details: max 0.3 µM
Outline: as §1

Selumetinib = compound: Cn1cnc2c(F)c(Nc3ccc(Br)cc3Cl)c(C(=O)NOCCO)cc21 [Selumetinib]; details: max 10 µM
Outline: as §1

AZD8186 = compound: C[C@@H](Nc1cc(F)cc(F)c1)c1cc(C(=O)N(C)C)cc2c(=O)cc(N3CCOCC3)oc12 [AZD8186]; details: max 3 µM
Outline: as §1

Capivasertib = compound: C1CN(CCC1(C(=O)N[C@@H](CCO)C2=CC=C(C=C2)Cl)N)C3=NC=NC4=C3C=CN4 [Capivasertib]; details: max 10 µM
Outline: as §1

AZD5153 = compound: COc1nnc2ccc(N3CCC(c4ccc(OCCN5CCN(C)C(=O)[C@H]5C)cc4)CC3)nn12 [AZD5153]; details: max 1 µM
Outline: as §1

Gefitinib = compound: COc1cc2ncnc(Nc3ccc(F)c(Cl)c3)c2cc1OCCCN1CCOCC1 [Gefitinib]; details: max 10 µM
Outline: as §1

Doxorubicin = compound: COc1cccc2c1C(=O)c1c(O)c3c(c(O)c1C2=O)C[C@@](O)(C(=O)CO)C[C@@H]3O[C@H]1C[C@H](N)[C@H](O)[C@H](C)O1 [Doxorubicin]; details: max 1 µM
Outline: as §1

AZD6738 = compound: C[C@@H]1COCCN1C2=NC(=NC(=C2)C3(CC3)[S@](=N)(=O)C)C4=C5C=CNC5=NC=C4 [AZD6738]; details: max 10 µM
Outline: as §1

Taselisib = compound: Cc1nc(-c2cn3c(n2)-c2ccc(-c4cnn(C(C)(C)C(N)=O)c4)cc2OCC3)n(C(C)C)n1 [Taselisib]; details: max 10 µM
Outline: as §1

SG3199 = compound: CC1=CN2[C@@H](C1)C=NC3=CC(=C(C=C3C2=O)OC)OCCCCCOC4=C(C=C5C(=C4)N=C[C@@H]6CC(=CN6C5=O)C)OC [SG3199]; details: max 0.001 µM
Outline: as §1

SN-38 = compound: CCc1c2c(nc3ccc(O)cc13)-c1cc3c(c(=O)n1C2)COC(=O)[C@]3(O)CC [SN-38]; details: max 0.3 µM
Outline: as §1

AZD2811 = compound: CCN(CCO)CCCOc1ccc2c(Nc3cc(CC(=O)Nc4cccc(F)c4)[nH]n3)ncnc2c1 [AZD2811]; details: max 1 µM
Outline: as §1

Lapatinib = compound: CS(=O)(=O)CCNCc1ccc(-c2ccc3ncnc(Nc4ccc(OCc5cccc(F)c5)c(Cl)c4)c3c2)o1 [Lapatinib]; details: max 10 µM
Outline: as §1

AZD0156 = compound: CN(C)CCCOc1ccc(-c2ccc3ncc4c(c3c2)n(C2CCOCC2)c(=O)n4C)cn1 [AZD0156]; details: max 3 µM
Outline: as §1

AZD1775 = compound: C=CCn1c(=O)c2cnc(Nc3ccc(N4CCN(C)CC4)cc3)nc2n1-c1cccc(C(C)(C)O)n1 [AZD1775]; details: max 3 µM
Outline: as §1

MK-2206 = compound: NC1(c2ccc(-c3nc4ccn5c(=O)[nH]nc5c4cc3-c3ccccc3)cc2)CCC1 [MK-2206]; details: max 10 µM
Outline: as §1

Alisertib = compound: COc1cc(Nc2ncc3c(n2)-c2ccc(Cl)cc2C(c2c(F)cccc2OC)=NC3)ccc1C(=O)O [Alisertib]; details: max 10 µM
Outline: as §1

Dasatinib = compound: CC1=C(C(=CC=C1)Cl)NC(=O)C2=CN=C(S2)NC3=CC(=NC(=N3)C)N4CCN(CC4)CCO [Dasatinib]; details: max 2 µM
Outline: as §1

Palbociclib = compound: CC(=O)c1c(C)c2cnc(Nc3ccc(N4CCNCC4)cn3)nc2n(C2CCCC2)c1=O [Palbociclib]; details: max 10 µM
Outline: as §1

Trametinib = compound: CC(=O)Nc1cccc(-n2c(=O)n(C3CC3)c(=O)c3c(Nc4ccc(I)cc4F)n(C)c(=O)c(C)c32)c1 [Trametinib]; details: max 1 µM
Outline: as §1

Savolitinib = compound: C[C@@H](c1ccc2nccn2c1)n1nnc2ncc(-c3cnn(C)c3)nc21 [Savolitinib]; details: max 1 µM
Outline: as §1

Cell Line	IC50, cell viability 72 h (AZD7648) [nM]	IC50, cell viability 72 h (Crizotinib) [nM]	IC50, cell viability 72 h (Venetoclax) [nM]	IC50, cell viability 72 h (Prexasertib) [nM]	IC50, cell viability 72 h (AZD4320) [nM]	IC50, cell viability 72 h (Olaparib) [nM]	IC50, cell viability 72 h (AZD5991) [nM]	IC50, cell viability 72 h (AZD1390) [nM]	IC50, cell viability 72 h (Selumetinib) [nM]	IC50, cell viability 72 h (AZD8186) [nM]	IC50, cell viability 72 h (Capivasertib) [nM]	IC50, cell viability 72 h (AZD5153) [nM]	IC50, cell viability 72 h (Gefitinib) [nM]	IC50, cell viability 72 h (Doxorubicin) [nM]	IC50, cell viability 72 h (AZD6738) [nM]	IC50, cell viability 72 h (Taselisib) [nM]	IC50, cell viability 72 h (SG3199) [nM]	IC50, cell viability 72 h (SN-38) [nM]	IC50, cell viability 72 h (AZD2811) [nM]	IC50, cell viability 72 h (Lapatinib) [nM]	IC50, cell viability 72 h (AZD0156) [nM]	IC50, cell viability 72 h (AZD1775) [nM]	IC50, cell viability 72 h (MK-2206) [nM]	IC50, cell viability 72 h (Alisertib) [nM]	IC50, cell viability 72 h (Dasatinib) [nM]	IC50, cell viability 72 h (Palbociclib) [nM]	IC50, cell viability 72 h (Trametinib) [nM]	IC50, cell viability 72 h (Savolitinib) [nM]
NCI-H596 (Other Solid Carcinomas)	> 10000	> 10000	> 1000	866	> 1000	> 10000	> 1000	> 300	> 10000	> 3000	> 10000	301	> 10000	> 1000	> 10000	4950	> 1	> 300	> 1000	> 10000	> 3000	1450	> 10000	> 10000	> 2000	> 10000	> 1000	> 1000
NCI-H1876 (Small Cell Lung Carcinoma)	> 10000	5910	> 1000	29.2	176	4440	> 1000	> 300	> 10000	> 3000	> 10000	> 1000	> 10000	221	4710	3900	> 1	1.03	149	> 10000	> 3000	330	> 10000	265	> 2000	> 10000	> 1000	> 1000
OAW-28 (Ovarian Carcinoma)	> 10000	> 10000	> 1000	720	176	> 10000	> 1000	> 300	> 10000	> 3000	> 10000	> 1000	> 10000	> 1000	> 10000	6130	> 1	11.4	> 1000	> 10000	> 3000	> 3000	> 10000	> 10000	> 2000	> 10000	> 1000	> 1000
P32-ISH (Burkitt's Lymphoma)	> 10000	2270	> 1000	5.37	> 1000	> 10000	50.1	> 300	> 10000	> 3000	8020	136	> 10000	303	2600	8180	> 1	1.82	77	6900	> 3000	218		20	> 2000	6150	> 1000	> 1000
PA-TU-8988T (Pancreatic Carcinoma)	> 10000	> 10000	> 1000	> 1000	> 1000	> 10000	> 1000	> 300	> 10000	> 3000	> 10000	193	> 10000	940	> 10000	6150	> 1	185	> 1000	> 10000	> 3000	1290		> 10000	664	> 10000	> 1000	> 1000
PL4 (Pancreatic Carcinoma)	> 10000	> 10000	> 1000	117	> 1000	> 10000	> 1000	> 300	> 10000	> 3000	> 10000	969	> 10000	> 1000	6410	2260	> 1	43.5	> 1000	> 10000	> 3000	1360		8070	634	> 10000	106	> 1000
Raji (Burkitt's Lymphoma)	> 10000	> 10000	> 1000	18.7	> 1000	> 10000	506	> 300	> 10000	> 3000	> 10000	371	> 10000	114	3810	> 10000	> 1	4.3	> 1000	> 10000	> 3000	472		> 10000	> 2000	> 10000	> 1000	> 1000
SAT (Head and Neck Carcinoma)	> 10000	> 10000	> 1000	826	> 1000	> 10000	> 1000	> 300	4690	> 3000	> 10000	155	2610	> 1000	> 10000	160	> 1	> 300	> 1000	2020	> 3000	2690		2920	204	> 10000	77.2	> 1000
SNU-407 (Colorectal Carcinoma)	> 10000	> 10000	> 1000	458	> 1000	> 10000	> 1000	> 300	2560	> 3000	6340	62.9	> 10000	> 1000	4120	365	> 1	160	> 1000	> 10000	> 3000	1570	> 10000	1150	> 2000	> 10000	74.3	> 1000
SNU-C2B (Colorectal Carcinoma)	> 10000	> 10000	> 1000	133	> 1000	> 10000	> 1000	> 300	> 10000	> 3000	> 10000	788	> 10000	> 1000	7630	8210	> 1	> 300	> 1000	> 10000	> 3000	1120		> 10000	> 2000	> 10000	> 1000	> 1000
SUP-M2 (T-Cell Non-Hodgkin's Lymphoma)	> 10000	475	> 1000	16.5	805	5400	117	> 300	> 10000	> 3000	> 10000	30.4	> 10000	54.7	1010	> 10000	> 1	1.56	22.6	6550	> 3000	316		57.7	> 2000	6520	> 1000	> 1000
SiHa (Cervical Carcinoma)	> 10000	> 10000	> 1000	> 1000	> 1000	> 10000	> 1000	> 300	> 10000	> 3000	> 10000	444	> 10000	> 1000	> 10000	> 10000	> 1	> 300	> 1000	> 10000	> 3000	> 3000		> 10000	> 2000	> 10000	> 1000	> 1000
T47D (Breast Carcinoma)	> 10000	> 10000	> 1000	> 1000	> 1000	> 10000	> 1000	> 300	> 10000	> 3000	> 10000	> 1000	> 10000	> 1000	> 10000	776	> 1	104	> 1000	> 10000	> 3000	> 3000		> 10000	> 2000	> 10000	> 1000	> 1000
UACC-257 (Melanoma)	> 10000	> 10000	> 1000	> 1000	> 1000	> 10000	> 1000	> 300	2330	> 3000	> 10000	> 1000	> 10000	> 1000	> 10000	> 10000	> 1	> 300	> 1000	> 10000	> 3000	> 3000		> 10000	> 2000	> 10000	41.2	> 1000
WM35 (Melanoma)	> 10000	> 10000	> 1000	134	> 1000	> 10000	> 1000	> 300	1090	> 3000	> 10000	> 1000	> 10000	> 1000	> 10000	> 10000	> 1	210	> 1000	> 10000	> 3000	> 3000		> 10000	> 2000	> 10000	16.6	> 1000
